Values joined by “and” are separate entries in the source; they are usually repeats but may differ in a detail not shown here. Identical values can stand only once. Like-named read-outs stand apart in the source and are kept apart here. Values belong to the compound of their own block, whether it stands above or below them.
Columns and labels:
Retinal Reductase = experiment: Assay for retinal reductase activity, rat liver microsomes (to identify B3); assay type: biochemical; settings: test compound final 100 μM
[1] = test system: transglutaminase (TGase I); experiment: Transglutaminase (Tgase) ELISA assay in cultured keratinocytes with retinol and boosters; assay type: cell-based, human; settings: for TG as % C, Compd 3: Compound 3 alone; for TG as % C, Compd 3 / TG as % C Compd 1 / TG as % C Compd 2: concentration one log below IC20; for IC20: IC20 (80% of control)
ARAT = experiment: Assay for ARAT activity, bovine RPE microsomes (to identify B1); assay type: biochemical; settings: for % Inhibition ARAT (100 jm): compound 100 jm; for % Inhibition ARAT (10 jm): compound 10 jm
LRAT = biological target: T1, LRAT (Bos taurus, UniProt Q9BGL2); experiment: Assay for LRAT activity, bovine RPE microsomes (to identify B1); assay type: biochemical; settings: for % Inhibition LRAT (10 jm): compound 10 jm
T1 construct: followed by approximately 15 μg of RPE microsomal protein; tissue W. L. Lawson Co., Lincoln, Nebr., USA (eyecups); host or cells: bovine retinal pigment epithelium microsomes
T1 sequence (Q9BGL2 1-230): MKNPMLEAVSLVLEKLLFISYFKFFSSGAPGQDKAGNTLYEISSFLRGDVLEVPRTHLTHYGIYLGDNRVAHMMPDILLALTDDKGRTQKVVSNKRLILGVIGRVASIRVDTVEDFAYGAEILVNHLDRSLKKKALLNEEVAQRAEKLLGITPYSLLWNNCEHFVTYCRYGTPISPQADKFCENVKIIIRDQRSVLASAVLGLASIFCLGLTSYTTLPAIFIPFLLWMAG

[2] = test system: cytochrome P450 dependent retinoic acid oxidation; experiment: Assay for NADPH dependent retinoic acid oxidation, rat liver microsomes (to identify B5); settings: for % Inhibition Retinoic Acid (100 μM): compound 100 μM; for % Inhibition Retinoic Acid (10 μM): compound 10 μM
[3] = in the presence of 10^-7M retinol
[4] = compound tested individually in the presence of 10^-7 M retinol
[5] = Compound 1 alone, in the presence of 10^-7M retinol
[6] = B1 table, booster concentration which with 10^−7 M retinol inhibits TGase by 50%, same values in the 19th table (Molar), read-out: Overall TG (IC 50)
[7] = Tgase inhibition, compound tested individually in the presence of 10^-7 M retinol, read-out: IC50
[8] = Compound 2 alone, in the presence of 10^-7M retinol

% Inhibition LRAT (100 jm) (LRAT; compound 100 jm): 37% +/− 9 | IC50 [1, 6]: 99.9 µM | TG as % C Compd 1 [1, 5]: 104 % C | IC20 [1, 4]: 69.4 µM | IC50 [1, 7]: 99.9 µM
Compound: Hexanoyl Sphingosine
TG as % C Compd 1 ([1]; compound 1 alone, with retinol): 122 % C and 99.3 % C and 99 % C and 109 % C

% Inhibition Retinoic Acid (100 μM) [2]: 47%
Compound: CC(C)(C(=O)c1cccnc1)c1cccnc1 [2-Methyl-1,2-di-3-Pyridyl-1-Propane]

% Inhibition Retinoic Acid (10 μM) [2]: 76%
Compound: Clc1ccccc1C(c1ccccc1)(c1ccccc1)n1ccnc1 [Clotrimazole, reference compound]
TG as % C, Compd 3 [1, 3]: 79 % C

% Inhibition LRAT (100 jm) (LRAT; compound 100 jm): 37%
Compound: CC(=O)/C=C/C=C(\C)CCC=C(C)C [Pseudoionone]

% Inhibition LRAT (100 jm) (LRAT; compound 100 jm): 58% +/− 2
Compound: Glycerol-PCA-Oleate
% Inhibition ARAT (100 jm) (ARAT): 41% +/− 6

% Inhibition LRAT (100 jm) (LRAT; compound 100 jm): 45%
Compound: Isobutyl Ionone
% Inhibition ARAT (100 jm) (ARAT): 8%

% Inhibition LRAT (100 jm) (LRAT; compound 100 jm): 12%
Compound: Santalone
% Inhibition ARAT (100 jm) (ARAT): 23%

% Inhibition LRAT (10 jm) (LRAT): 29% | % Inhibition LRAT (100 jm) (LRAT; compound 100 jm): 79%
Compound: Damascenone

% Inhibition LRAT (100 jm) (LRAT; compound 100 jm): 92%
Compound: CC=CC(=O)C1CCC(C)(C)C=C1C (stereo not drawn) [Isodamascone]
% Inhibition ARAT (100 jm) (ARAT): 80%

% Inhibition Retinoic Acid (10 μM) [2]: 74% | % Inhibition Retinoic Acid (100 μM) [2]: 86%
Compound: Clc1ccc(COC(Cn2ccnc2)c2ccc(Cl)cc2Cl)c(Cl)c1 (stereo not drawn) [Miconazole, reference compound]
TG as % C Compd 2 [1, 8]: 92 % C | TG as % C, Compd 3 [1, 3]: 82 % C | IC20 [1, 4]: 0.0842 µM

% Inhibition LRAT (100 jm) (LRAT; compound 100 jm): 33%
Compound: CCCC(O)CCC1C(C)CCCC1(C)C (stereo not drawn) [Timberol]

% Inhibition LRAT (10 jm) (LRAT): 52% | % Inhibition LRAT (100 jm) (LRAT; compound 100 jm): 92%
Compound: C/C=C/C(=O)C1=C(C)CCCC1(C)C [Beta-Damascone]

% Inhibition LRAT (10 jm) (LRAT): 0% | % Inhibition LRAT (100 jm) (LRAT; compound 100 jm): 17% +/− 17
Compound: CCCCCCCC(=O)OCC(COP(=O)(O)OCCN)OC(=O)CCCCCCC (stereo not drawn) [Dioctylphosphatidyl Ethanolamine]
% Inhibition ARAT (10 jm) (ARAT): 23%

% Inhibition LRAT (10 jm) (LRAT): 87% +/− 6 | % Inhibition LRAT (100 jm) (LRAT; compound 100 jm): 98% +/− 1 | IC50 [1, 6]: 335 µM | IC20 [1, 4]: 169 µM | IC50 [1, 7]: 335 µM | TG as % C Compd 1 ([1]; compound 1 alone, with retinol, listed as Alpha-demascone): 95 % C and 112 % C
Compound: C/C=C\C(=O)C1C(C)=CCCC1(C)C (stereo not drawn) [Alpha-Damascone]

The next lines start with the compound.

Compound: CCCCC/C=C\C/C=C\CCCCCCCC(=O)O [Linoleic Acid]
% Inhibition Retinal Reductase (Retinal Reductase): 62% +/− 2 | TG as % C, Compd 3 [1, 3]: 11 % C | IC20 [1, 4]: 89.5 µM

Compound: CC(C)(O)CCCC1=CCC(C=O)CC1 (stereo not drawn) [Lyral]
% Inhibition ARAT (100 jm) (ARAT): 76% | TG as % C Compd 1 [1, 5]: 97 % C | IC20 [1, 4]: 40 µM | TG as % C Compd 1 ([1]; compound 1 alone, with retinol): 120 % C

Compound: CCCCCCCCCCCCCC(=O)O [Myristic Acid]
% Inhibition Retinal Reductase (Retinal Reductase): 26% | TG as % C Compd 1 [1, 5]: 79 % C | IC20 [1, 4]: 10.5 µM | TG as % C Compd 1 ([1]; compound 1 alone, with retinol): 110 % C

Compound: Clc1ccc(COC(Cn2ccnc2)c2ccc(Cl)cc2Cl)cc1 (stereo not drawn) [Econazole]
% Inhibition Retinoic Acid (10 μM) [2]: 88% | % Inhibition Retinoic Acid (100 μM) [2]: 100%

Compound: CC(=O)N1CCN(c2ccc(OCC3COC(Cn4ccnc4)(c4ccc(Cl)cc4Cl)O3)cc2)CC1 (stereo not drawn) [Ketoconazole, reference compound]
TG as % C Compd 2 [1, 8]: 85 % C | IC20 [1, 4]: 0.0552 µM | % Inhibition Retinoic Acid (10 μM) [2]: 84% | % Inhibition Retinoic Acid (100 μM) [2]: 84%

Compound: Cocoyl Monoethanolamide
% Inhibition ARAT (100 jm) (ARAT): 13% | % Inhibition LRAT (100 jm) (LRAT; compound 100 jm): 34%

Compound: Delta-Damascone
% Inhibition LRAT (10 jm) (LRAT): 64% | % Inhibition LRAT (100 jm) (LRAT; compound 100 jm): 95%

Compound: C=CC(C)(O)CCC=C(C)C (stereo not drawn) [Linalool]
inhibition at 100 µM (LRAT; compound 100 jm): 0%

Compound: CC(/C=C/C=C(\C)C(=O)O)=C\C=C\C=C(C)\C=C\C=C(/C)C(=O)O [Crocetin]
% Inhibition ARAT (10 jm) (ARAT): 15% | % Inhibition ARAT (100 jm) (ARAT): 34% | TG as % C, Compd 3 [1, 3]: 90 % C | IC20 [1, 4]: 25.2 µM

Compound: Santanol
% Inhibition ARAT (100 jm) (ARAT): 15% | % Inhibition LRAT (100 jm) (LRAT; compound 100 jm): 43%

Compound: Oleyl Betaine
% Inhibition ARAT (100 jm) (ARAT): 47% | IC50 [1, 6]: 28 µM | TG as % C Compd 1 [1, 5]: 62 % C | IC20 [1, 4]: 10.8 µM | IC50 [1, 7]: 28 µM | TG as % C Compd 1 ([1]; compound 1 alone, with retinol, listed as Oleoyl beatine): 96 % C | TG as % C Compd 1 ([1]; compound 1 alone, with retinol, listed as Oleoyl betaine): 99.5 % C

Compound: CCCCC/C=C\C/C=C\C/C=C\C/C=C\CCCC(=O)O [Arachidonic Acid]
% Inhibition Retinal Reductase (Retinal Reductase): 49%

Compound: Acetyl Sphingosine
% Inhibition ARAT (10 jm) (ARAT): 19% +/− 12 | % Inhibition ARAT (100 jm) (ARAT): 62% +/− 11 | % Inhibition LRAT (10 jm) (LRAT): 10% +/− 10 | % Inhibition LRAT (100 jm) (LRAT; compound 100 jm): 50% +/− 18 | IC50 [1, 6]: 6.78 µM | TG as % C, Compd 3 [1, 3]: 99 % C | IC20 [1, 4]: 5.15 µM | IC50 [1, 7]: 6.78 µM

Compound: Alpha-Methyl Ionone
% Inhibition ARAT (100 jm) (ARAT): 67% | % Inhibition LRAT (100 jm) (LRAT; compound 100 jm): 77%

Compound: CCCCCCCC/C=C\CCCCCCCC1=NCCN1CCO [Oleyl Hydroxyethylimidazoline]
IC50 ([1]; B5 table, with 10^−7 M retinol, read-out: Overall TG (IC 50)): 30.2 µM | TG as % C, Compd 3 [1, 3]: 76 % C | IC20 [1, 4]: 5.65 µM | IC50 [1, 7]: 30.2 µM | TG as % C Compd 2 ([1]; compound 2 alone, with retinol, listed as Oleoyl hydorxyethylimdazoline): 92 % C | TG as % C Compd 2 ([1]; compound 2 alone, with retinol, listed as Oleoyl hydroxyethylimiazoline): 73 % C | % Inhibition Retinoic Acid (10 μM) [2]: 54% | % Inhibition Retinoic Acid (100 μM) [2]: 80%

Compound: O=c1c(O)c(-c2ccc(O)c(O)c2)oc2cc(O)cc(O)c12 [Quercetin]
TG as % C, Compd 3 [1, 3]: 92 % C | IC20 [1, 4]: 51.1 µM | % Inhibition Retinoic Acid (10 μM) [2]: 40% | % Inhibition Retinoic Acid (100 μM) [2]: 74%

Compound: c1ccc(-c2ccc(C(c3ccccc3)n3ccnc3)cc2)cc1 (stereo not drawn) [Bifonazole]
% Inhibition Retinoic Acid (10 μM) [2]: 89% | % Inhibition Retinoic Acid (100 μM) [2]: 100%

Compound: CC(C)(C)C(=O)C(Oc1ccc(Cl)cc1)n1ccnc1 (stereo not drawn) [Climbazole, reference compound]
TG as % C Compd 2 [1, 8]: 84 % C | TG as % C, Compd 3 [1, 3]: 84 % C | IC20 [1, 4]: 0.245 µM | % Inhibition Retinoic Acid (10 μM) [2]: 80% | % Inhibition Retinoic Acid (100 μM) [2]: 92%

Compound: Isocyclogeraniol
% Inhibition ARAT (100 jm) (ARAT): 18% | % Inhibition LRAT (100 jm) (LRAT; compound 100 jm): 16%

Compound: CC(C)=CCCC(C)=CCCC(C)=CCO [Farnesol]
% Inhibition ARAT (10 jm) (ARAT): 23% +/− 18 | % Inhibition ARAT (100 jm) (ARAT): 53% +/− 18 | TG as % C, Compd 3 [1, 3]: 118 % C | IC20 [1, 4]: 78.2 µM | TG as % C Compd 1 ([1]; compound 1 alone, with retinol): 98 % C

Compound: Brahmanol
% Inhibition ARAT (100 jm) (ARAT): 70% | % Inhibition LRAT (100 jm) (LRAT; compound 100 jm): 75%

Compound: O=C1C[C@@H](c2ccc(O)cc2)Oc2cc(O)cc(O)c21 [Naringenin]
% Inhibition ARAT (100 jm) (ARAT): 33% | TG as % C, Compd 3 [1, 3]: 94 % C | TG as % C Compd 1 ([1]; compound 1 alone, with retinol): 95 % C

Compound: Gamma-Methyl Ionone
% Inhibition LRAT (100 jm) (LRAT; compound 100 jm): 38%

Compound: CC(C)=CCC/C(C)=C/CO [Geraniol]
% Inhibition ARAT (10 jm) (ARAT): 13% | % Inhibition ARAT (100 jm) (ARAT): 32% | TG as % C, Compd 3 [1, 3]: 105 % C | IC20 [1, 4]: 4720 µM

Compound: Ethyl Saffranate
% Inhibition LRAT (100 jm) (LRAT; compound 100 jm): 49%

Compound: CCCCC/C=C\C/C=C\CCCCCCCC(=O)N(CCO)CCO [Linoleoyl Diethanolamide]
% Inhibition LRAT (10 jm) (LRAT): 11% +/− 9 | % Inhibition LRAT (100 jm) (LRAT; compound 100 jm): 51% +/− 15 | % Inhibition Overall TG (—ROH/RE) ([1]; % (booster+retinol inhibition/control inhibition) − % (ROH inhibition/control inhibition)): 59%

Compound: CCCCCCCCCCCCCCCCCCCC(=O)O [Arachidic Acid]
% Inhibition Retinal Reductase (Retinal Reductase): 20%

Compound: CC(=O)CCC1C(C)=CCCC1(C)C (stereo not drawn) [Dihydro Alpha-Ionone]
% Inhibition ARAT (100 jm) (ARAT): 13% | % Inhibition LRAT (100 jm) (LRAT; compound 100 jm): 18%

Source: US8409550B2, “Method for treating skin with retinoids and retinoid boosters” (Unilever Home & Personal Care, USA, Division of Conopco, …, priority 2000, dated 2013)
